Results as given in ChEMBL document CHEMBL1201862, “PubChem BioAssay data set” (2004).
Activity calls are given as the source filed them.

Experiments:
[1] = molecular target: T1, Methionyl-tRNA synthetase, putative (Trypanosoma brucei brucei, UniProt Q38C91); assay type: functional, Trypanosoma brucei brucei strain 927/4 GUTat10.1
T1 sequence (Q38C91 whole entry): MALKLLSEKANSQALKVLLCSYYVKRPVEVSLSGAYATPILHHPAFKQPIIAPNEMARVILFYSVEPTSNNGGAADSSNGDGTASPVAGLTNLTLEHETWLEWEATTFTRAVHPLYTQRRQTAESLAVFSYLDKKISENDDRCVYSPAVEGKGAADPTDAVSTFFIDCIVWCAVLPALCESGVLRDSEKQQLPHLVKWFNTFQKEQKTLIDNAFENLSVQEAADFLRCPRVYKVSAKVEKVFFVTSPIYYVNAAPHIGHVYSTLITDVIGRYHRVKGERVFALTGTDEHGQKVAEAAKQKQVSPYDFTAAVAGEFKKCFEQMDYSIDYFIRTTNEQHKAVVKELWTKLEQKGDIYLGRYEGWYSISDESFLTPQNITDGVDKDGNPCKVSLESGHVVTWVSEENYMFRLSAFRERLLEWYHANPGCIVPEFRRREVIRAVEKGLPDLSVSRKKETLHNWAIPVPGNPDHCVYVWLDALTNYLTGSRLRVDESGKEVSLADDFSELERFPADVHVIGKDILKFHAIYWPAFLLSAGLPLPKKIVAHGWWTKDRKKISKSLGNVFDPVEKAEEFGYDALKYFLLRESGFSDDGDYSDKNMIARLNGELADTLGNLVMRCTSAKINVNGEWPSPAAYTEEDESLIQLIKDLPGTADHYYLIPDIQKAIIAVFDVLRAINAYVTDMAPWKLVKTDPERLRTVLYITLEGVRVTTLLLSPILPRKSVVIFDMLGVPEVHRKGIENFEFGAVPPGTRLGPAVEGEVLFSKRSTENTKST

[2] = molecular target: DNA repair and recombination protein RAD54-like (Homo sapiens, UniProt Q92698); assay: RAD54 Holliday junction migration blockers – biochemical, fluorescence, cherry-picked samples, dose series, confirmation (AID 651657); assay type: functional
[3] = molecular target: T1, Methionyl-tRNA synthetase, putative; assay type: functional, Trypanosoma brucei brucei strain 927/4 GUTat10.1; remark: listed apart in the source
[4] = Counterscreen for inhibitors of Trypanosoma brucei methionyl tRNA synthetase (MetRS): Luminescence-based cell-based high throughput dose response assay to identify compounds that are cytotoxic to Jurkat human T lymphocyte cells.; assay type: functional
Insulin-degrading enzyme = molecular target: T2, Insulin-degrading enzyme (Homo sapiens, UniProt P14735); assay: Dose Response: Fluorescence polarization-based cell-based high throughput dose response assay for inhibitors of insulin-degrading enzyme (IDE). [Related pubchem assays: 434962 (Primary screen (IDE inhibitors in singlicate)), 449730 (Counterscreen (Cytotoxicity in triplicate)), 435028 (Confirmation (IDE inhibitors in triplicate)), 434984 (Summary …; assay type: functional
T2 sequence (P14735 whole entry): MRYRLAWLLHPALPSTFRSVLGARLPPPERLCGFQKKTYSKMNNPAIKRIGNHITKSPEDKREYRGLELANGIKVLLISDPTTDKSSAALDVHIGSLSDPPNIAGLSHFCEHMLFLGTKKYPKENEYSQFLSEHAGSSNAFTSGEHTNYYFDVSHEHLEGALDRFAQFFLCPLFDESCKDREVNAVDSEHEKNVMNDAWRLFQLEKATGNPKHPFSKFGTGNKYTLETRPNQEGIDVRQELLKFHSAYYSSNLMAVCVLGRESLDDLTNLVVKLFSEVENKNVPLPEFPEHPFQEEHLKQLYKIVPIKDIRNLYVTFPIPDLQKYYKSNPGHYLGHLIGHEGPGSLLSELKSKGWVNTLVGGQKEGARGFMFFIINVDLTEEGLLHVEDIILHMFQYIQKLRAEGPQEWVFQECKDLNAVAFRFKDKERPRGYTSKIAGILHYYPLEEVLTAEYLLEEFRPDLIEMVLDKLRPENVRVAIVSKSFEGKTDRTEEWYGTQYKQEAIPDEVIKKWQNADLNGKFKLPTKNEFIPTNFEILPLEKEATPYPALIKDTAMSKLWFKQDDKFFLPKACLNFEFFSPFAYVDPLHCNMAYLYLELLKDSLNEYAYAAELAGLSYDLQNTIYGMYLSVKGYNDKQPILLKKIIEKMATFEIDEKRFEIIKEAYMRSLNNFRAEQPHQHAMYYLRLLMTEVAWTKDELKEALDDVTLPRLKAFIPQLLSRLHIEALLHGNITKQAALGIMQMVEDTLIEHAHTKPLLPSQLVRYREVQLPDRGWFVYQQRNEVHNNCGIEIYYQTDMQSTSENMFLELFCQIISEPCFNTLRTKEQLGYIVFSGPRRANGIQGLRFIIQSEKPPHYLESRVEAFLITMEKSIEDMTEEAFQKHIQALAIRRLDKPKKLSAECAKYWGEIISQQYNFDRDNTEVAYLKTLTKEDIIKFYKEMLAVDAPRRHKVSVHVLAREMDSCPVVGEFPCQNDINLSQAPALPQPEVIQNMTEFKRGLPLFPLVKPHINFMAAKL

[5] = Counterscreen for IDE inhibitors: Luminescence-based cell-based high throughput dose response assay to identify compounds that are cytotoxic to HEK cells. [Related pubchem assays: 434962 (Primary screen (IDE inhibitors in singlicate)), 449730 (Counterscreen (Cytotoxicity in triplicate)), 435028 (Confirmation (IDE inhibitors in triplicate)) …; assay type: functional; details: HEK293
[6] = molecular target: 26S proteasome non-ATPase regulatory subunit 14 (Homo sapiens, UniProt O00487); assay: inhibition of proteasome subunit RPN11 – biochemical, fluorescence polarization, uHTS hits, confirmation (AID 602368); assay type: functional
[7] = molecular target: 72 kDa type IV collagenase (Homo sapiens, UniProt P08253); assay: Dose Response validation of uHTS RPN11 inhibitor hits using a MMP-2 Fluorescence assay.; assay type: functional
[8] = molecular target: T3, Sentrin-specific protease 1 (Homo sapiens, UniProt Q9P0U3); assay: Dose response confirmation of small molecule inhibitors of the catalytic domain of the SUMO protease, SENP1 in a FRET assay.; assay type: functional; details: read-out: IC50_Mean
[9] = molecular target: T3, Sentrin-specific protease 1; assay: SENP1 catalytic domain blockers, concentration series – biochemical, kinetic FRET, dose response (AID 651697); assay type: functional; details: read-out: IC50_Mean
Prothrombin = Prothrombin (Bos taurus, UniProt P00735); assay: thrombin protease inhibitors – biochemical, fluorescence polarization, uHTS hits, dose response (AID 602369); assay type: functional
[10] = molecular target: T4, Rac GTPase-activating protein 1 (Homo sapiens, UniProt Q9H0H5); assay: blockers of MgcRacGAP-driven Rac1 GTP hydrolysis – biochemical, ADP Hunter fluorescence, primary and confirmatory, confirmation (AID 624330); assay type: functional
T4 sequence (Q9H0H5 whole entry): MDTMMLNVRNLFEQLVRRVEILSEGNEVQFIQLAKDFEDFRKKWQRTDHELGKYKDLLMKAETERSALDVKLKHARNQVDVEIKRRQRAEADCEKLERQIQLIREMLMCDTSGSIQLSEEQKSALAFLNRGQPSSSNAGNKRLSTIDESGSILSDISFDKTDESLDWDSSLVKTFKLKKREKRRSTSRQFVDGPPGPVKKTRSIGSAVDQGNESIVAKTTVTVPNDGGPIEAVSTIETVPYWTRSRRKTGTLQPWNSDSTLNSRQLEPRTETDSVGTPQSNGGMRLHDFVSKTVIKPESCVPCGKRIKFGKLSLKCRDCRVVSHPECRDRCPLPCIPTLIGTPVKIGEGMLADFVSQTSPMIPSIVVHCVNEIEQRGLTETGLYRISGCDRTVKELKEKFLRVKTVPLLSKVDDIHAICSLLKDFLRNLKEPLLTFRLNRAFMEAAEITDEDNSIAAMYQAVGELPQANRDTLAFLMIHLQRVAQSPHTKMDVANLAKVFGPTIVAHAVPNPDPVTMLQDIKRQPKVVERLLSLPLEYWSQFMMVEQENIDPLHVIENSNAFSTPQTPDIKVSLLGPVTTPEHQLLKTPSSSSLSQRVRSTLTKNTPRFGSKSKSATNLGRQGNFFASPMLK

Beta Lactamase = Beta Lactamase (Pseudomonas aeruginosa, UniProt Q932Y6); assay: BLA reporter interference, concentration series – BLA reporter cells, FRET fluorescence, artefact control for NOD2-RIPK2 interaction inhibitor project, dose response (AID 651552); assay type: functional, cell-based
[11] = molecular target: Glucose-6-phosphate 1-dehydrogenase (Homo sapiens, UniProt P11413); assay: inhibition of Homo sapiens G6PD, dose series – biochemical, fluorescence, selectivity assay for P. falciparum G6PD inhibitor project, dose response (AID 504792); assay type: functional
[12] = Fluorescence-based cell-based high throughput dose response assay for inhibitors of the interaction of nucleotide-binding oligomerization domain containing 2 (NOD2) and the receptor-interacting serine-threonine kinase 2 (RIPK2).; assay type: functional; details: Homo sapiens
[13] = molecular target: T5, Voltage-gated N-type calcium channel alpha-1B subunit/Amyloid beta A4 precursor protein-binding family A member 1 (Homo sapiens, UniProt Q00975+Q02410); assay type: protein assay
[14] = molecular target: T5, Voltage-gated N-type calcium channel alpha-1B subunit/Amyloid beta A4 precursor protein-binding family A member 1; assay type: protein assay; remark: listed apart in the source
Large T antigen = Large T antigen (Simian virus 40, UniProt P03070); assay type: functional, Betapolyomavirus macacae;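 further: Confirmatory-stage PubChem screen for compounds that inhibit SV40 T antigen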
[15] = molecular target: Mitogen-activated protein kinase 10 (Homo sapiens, UniProt P53779); assay: Dose response biochemical screening assay for inhibitors of c-Jun N-Terminal Kinase 3 (JNK3). [Related pubchem assays: 746 ]
Mu-type opioid receptor = Mu-type opioid receptor (Homo sapiens, UniProt P35372); assay type: functional, cell-based;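 further: U2OS cells with beta-arrestin recruitment to OPRM1 by beta-gal complementation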
[16] = molecular target: 5-hydroxytryptamine receptor 2A (Mus musculus, UniProt P35363); assay type: functional, cell-based;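 further: CHO-K1 cells with tagged receptor and beta-arrestin; agonist potency measured as compound-induced activation of the receptor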
Beta-lactamase [17] = molecular target: Beta-lactamase (Salmonella choleraesuis (strain SC-B67), UniProt Q5J463)
[18] = molecular target: T6, Short transient receptor potential channel 4 (Mus musculus, UniProt Q9QUQ5); assay: calcium entry via TRPC4 opening agents – cell-based, HEK293 TRPC4/mu-opioid, Fluo-4 calcium, dose response (AID 434937); assay type: functional
T6 sequence (Q9QUQ5 whole entry): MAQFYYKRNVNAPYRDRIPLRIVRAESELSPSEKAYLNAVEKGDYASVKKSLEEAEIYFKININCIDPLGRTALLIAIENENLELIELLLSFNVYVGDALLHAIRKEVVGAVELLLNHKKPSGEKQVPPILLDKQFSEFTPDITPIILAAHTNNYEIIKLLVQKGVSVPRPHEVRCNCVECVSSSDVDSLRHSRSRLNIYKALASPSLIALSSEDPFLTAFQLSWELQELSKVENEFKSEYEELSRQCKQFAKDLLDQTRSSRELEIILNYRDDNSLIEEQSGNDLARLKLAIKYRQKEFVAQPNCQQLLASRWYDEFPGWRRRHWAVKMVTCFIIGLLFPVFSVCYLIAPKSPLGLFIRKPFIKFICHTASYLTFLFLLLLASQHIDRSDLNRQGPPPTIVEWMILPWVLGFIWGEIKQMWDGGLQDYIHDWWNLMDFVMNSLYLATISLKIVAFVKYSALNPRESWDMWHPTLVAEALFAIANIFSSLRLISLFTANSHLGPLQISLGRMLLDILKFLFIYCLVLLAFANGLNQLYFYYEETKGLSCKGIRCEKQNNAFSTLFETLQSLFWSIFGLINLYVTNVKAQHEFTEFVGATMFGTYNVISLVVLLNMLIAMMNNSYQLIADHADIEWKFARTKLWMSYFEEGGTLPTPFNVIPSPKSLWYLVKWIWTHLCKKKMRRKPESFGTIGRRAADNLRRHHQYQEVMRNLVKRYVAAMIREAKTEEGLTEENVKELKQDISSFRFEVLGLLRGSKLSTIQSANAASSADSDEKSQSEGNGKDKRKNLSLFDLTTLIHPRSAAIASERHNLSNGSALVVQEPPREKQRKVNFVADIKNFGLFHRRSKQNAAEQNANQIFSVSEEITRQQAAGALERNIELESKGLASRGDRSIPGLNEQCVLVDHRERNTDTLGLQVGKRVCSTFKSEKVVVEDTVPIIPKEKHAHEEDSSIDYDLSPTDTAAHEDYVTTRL

Beta-lactamase [19] = molecular target: Beta-lactamase (Pseudomonas aeruginosa, UniProt Q79MP6);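 further: biochemical dose-response test of metallo-beta-lactamase enzyme inhibition, read out by epi-absorbance; purified recombinant IMP-1 metallo-beta-lactamase with nitrocefin as substrate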
[20] = molecular target: Eukaryotic translation initiation factor 4E (Mus musculus, UniProt P63073); assay: blockers of eIF4G binding by eIF4E – biochemical, TR-FRET, dose response (AID 855); assay type: functional;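 further: potency for disrupting eIF4E binding to eIF4GI seen as loss of FRET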
[21] = molecular target: T7, Probable nicotinate-nucleotide adenylyltransferase (Staphylococcus aureus (strain N315), UniProt P65502); assay type: functional, Staphylococcus aureus subsp. aureus N315;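 on IC50 Mean: confirmatory dose-response retesting of NadD inhibitor hits first found in an ultra-high-throughput screen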
[22] = molecular target: T7, Probable nicotinate-nucleotide adenylyltransferase; assay type: functional, Staphylococcus aureus subsp. aureus N315; details: read-out: IC50_Mean

T3 sequence (Q9P0U3 whole entry, the tested form may be a part): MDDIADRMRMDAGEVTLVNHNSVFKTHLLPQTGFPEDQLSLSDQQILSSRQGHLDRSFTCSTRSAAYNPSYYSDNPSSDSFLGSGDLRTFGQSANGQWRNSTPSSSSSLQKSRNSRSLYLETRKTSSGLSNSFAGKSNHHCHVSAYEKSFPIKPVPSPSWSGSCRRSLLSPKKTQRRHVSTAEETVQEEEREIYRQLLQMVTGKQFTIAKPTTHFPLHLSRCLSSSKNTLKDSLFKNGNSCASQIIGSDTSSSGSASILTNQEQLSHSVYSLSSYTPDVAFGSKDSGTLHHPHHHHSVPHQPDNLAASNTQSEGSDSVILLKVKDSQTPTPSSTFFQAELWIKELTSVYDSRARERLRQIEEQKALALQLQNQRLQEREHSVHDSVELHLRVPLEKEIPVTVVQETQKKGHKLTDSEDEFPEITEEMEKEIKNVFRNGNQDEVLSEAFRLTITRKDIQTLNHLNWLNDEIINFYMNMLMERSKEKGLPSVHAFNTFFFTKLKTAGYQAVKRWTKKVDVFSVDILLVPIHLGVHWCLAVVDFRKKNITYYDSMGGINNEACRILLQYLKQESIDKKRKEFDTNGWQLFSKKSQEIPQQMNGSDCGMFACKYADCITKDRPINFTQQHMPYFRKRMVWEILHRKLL
T5 sequence (Q00975 whole entry): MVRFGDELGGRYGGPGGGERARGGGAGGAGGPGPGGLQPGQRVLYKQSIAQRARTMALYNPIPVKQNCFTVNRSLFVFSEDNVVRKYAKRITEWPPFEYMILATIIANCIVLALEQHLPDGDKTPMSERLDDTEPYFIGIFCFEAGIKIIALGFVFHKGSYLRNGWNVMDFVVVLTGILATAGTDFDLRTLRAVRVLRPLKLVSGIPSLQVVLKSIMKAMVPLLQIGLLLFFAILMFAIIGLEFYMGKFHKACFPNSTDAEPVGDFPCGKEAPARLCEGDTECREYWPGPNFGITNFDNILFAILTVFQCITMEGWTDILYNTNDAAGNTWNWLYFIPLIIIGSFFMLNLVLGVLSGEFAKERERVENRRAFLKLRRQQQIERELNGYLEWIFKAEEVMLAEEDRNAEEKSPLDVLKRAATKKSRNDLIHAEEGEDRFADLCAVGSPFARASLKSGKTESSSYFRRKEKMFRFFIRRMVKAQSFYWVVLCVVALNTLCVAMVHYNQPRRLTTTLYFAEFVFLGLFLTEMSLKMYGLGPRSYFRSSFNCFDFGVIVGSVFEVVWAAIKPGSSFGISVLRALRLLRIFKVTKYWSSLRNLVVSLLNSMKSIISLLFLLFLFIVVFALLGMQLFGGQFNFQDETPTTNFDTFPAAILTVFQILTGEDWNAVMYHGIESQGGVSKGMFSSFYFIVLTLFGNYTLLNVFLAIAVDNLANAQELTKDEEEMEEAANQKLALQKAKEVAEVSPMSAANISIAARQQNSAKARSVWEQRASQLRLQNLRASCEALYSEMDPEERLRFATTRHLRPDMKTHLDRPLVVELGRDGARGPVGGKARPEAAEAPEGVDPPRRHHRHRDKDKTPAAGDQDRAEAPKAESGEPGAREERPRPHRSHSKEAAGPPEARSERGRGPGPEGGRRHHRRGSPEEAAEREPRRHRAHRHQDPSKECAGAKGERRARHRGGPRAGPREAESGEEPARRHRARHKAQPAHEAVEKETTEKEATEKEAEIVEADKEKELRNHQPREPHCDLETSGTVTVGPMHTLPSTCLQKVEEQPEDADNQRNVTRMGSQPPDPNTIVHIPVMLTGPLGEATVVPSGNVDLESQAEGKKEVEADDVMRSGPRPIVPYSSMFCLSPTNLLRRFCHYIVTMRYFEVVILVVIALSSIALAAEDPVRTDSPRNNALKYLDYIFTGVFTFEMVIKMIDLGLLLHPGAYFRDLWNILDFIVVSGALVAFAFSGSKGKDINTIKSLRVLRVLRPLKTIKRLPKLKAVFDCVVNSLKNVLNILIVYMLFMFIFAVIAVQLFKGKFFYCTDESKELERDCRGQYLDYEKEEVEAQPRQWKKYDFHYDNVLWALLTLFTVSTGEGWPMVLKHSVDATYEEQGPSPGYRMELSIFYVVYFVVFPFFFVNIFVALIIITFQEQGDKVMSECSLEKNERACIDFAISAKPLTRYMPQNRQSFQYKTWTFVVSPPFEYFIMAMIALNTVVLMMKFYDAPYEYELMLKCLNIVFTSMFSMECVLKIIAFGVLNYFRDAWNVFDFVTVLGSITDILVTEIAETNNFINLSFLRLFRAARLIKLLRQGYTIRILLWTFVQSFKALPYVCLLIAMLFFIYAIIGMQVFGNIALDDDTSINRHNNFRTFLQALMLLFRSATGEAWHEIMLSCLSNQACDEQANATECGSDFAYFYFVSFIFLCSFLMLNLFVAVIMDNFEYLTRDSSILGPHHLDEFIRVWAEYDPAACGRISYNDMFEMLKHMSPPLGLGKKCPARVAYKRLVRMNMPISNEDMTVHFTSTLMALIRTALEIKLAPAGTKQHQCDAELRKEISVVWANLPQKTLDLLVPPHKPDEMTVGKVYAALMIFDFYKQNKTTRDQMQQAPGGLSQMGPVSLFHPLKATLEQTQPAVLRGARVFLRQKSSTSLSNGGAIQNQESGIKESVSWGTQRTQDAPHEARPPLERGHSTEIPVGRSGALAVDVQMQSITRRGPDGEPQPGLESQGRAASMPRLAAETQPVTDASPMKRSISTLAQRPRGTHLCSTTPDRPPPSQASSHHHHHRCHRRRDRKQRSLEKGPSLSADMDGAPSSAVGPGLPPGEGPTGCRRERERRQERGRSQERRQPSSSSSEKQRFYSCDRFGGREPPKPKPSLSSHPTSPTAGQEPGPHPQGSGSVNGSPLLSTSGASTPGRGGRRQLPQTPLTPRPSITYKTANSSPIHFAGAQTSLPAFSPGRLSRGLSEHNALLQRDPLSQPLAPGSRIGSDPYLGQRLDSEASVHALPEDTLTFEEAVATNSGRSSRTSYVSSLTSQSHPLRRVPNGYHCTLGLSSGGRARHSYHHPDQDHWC
T5 sequence (Q02410 whole entry): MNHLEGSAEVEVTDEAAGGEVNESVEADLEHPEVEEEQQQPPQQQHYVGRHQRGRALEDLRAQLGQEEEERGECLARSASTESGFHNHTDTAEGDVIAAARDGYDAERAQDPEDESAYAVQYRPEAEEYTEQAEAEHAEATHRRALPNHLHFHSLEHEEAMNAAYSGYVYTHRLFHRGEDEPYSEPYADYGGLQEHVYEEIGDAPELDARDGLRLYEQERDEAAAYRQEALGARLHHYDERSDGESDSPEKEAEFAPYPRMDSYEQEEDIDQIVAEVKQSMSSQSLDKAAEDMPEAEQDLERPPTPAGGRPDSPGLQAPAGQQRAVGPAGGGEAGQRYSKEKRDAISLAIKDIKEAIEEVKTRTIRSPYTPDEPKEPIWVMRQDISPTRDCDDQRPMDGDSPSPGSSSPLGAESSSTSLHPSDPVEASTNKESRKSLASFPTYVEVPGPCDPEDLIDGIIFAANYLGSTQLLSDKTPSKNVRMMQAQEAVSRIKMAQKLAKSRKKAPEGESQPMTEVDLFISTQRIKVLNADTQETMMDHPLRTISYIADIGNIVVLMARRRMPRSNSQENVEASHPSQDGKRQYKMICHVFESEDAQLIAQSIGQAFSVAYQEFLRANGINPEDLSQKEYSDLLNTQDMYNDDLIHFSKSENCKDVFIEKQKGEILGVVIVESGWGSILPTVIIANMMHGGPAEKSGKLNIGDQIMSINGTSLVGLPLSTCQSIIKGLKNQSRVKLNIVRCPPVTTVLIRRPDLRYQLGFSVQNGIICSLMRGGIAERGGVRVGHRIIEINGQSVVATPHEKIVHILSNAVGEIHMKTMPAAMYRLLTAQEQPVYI
T7 sequence (P65502 whole entry): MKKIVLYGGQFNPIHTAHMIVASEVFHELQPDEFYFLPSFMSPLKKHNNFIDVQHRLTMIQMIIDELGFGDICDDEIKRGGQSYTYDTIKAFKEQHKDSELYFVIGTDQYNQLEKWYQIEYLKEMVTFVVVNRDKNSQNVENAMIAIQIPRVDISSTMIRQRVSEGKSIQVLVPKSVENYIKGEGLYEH
Chain of Large T antigen (P03070 whole entry): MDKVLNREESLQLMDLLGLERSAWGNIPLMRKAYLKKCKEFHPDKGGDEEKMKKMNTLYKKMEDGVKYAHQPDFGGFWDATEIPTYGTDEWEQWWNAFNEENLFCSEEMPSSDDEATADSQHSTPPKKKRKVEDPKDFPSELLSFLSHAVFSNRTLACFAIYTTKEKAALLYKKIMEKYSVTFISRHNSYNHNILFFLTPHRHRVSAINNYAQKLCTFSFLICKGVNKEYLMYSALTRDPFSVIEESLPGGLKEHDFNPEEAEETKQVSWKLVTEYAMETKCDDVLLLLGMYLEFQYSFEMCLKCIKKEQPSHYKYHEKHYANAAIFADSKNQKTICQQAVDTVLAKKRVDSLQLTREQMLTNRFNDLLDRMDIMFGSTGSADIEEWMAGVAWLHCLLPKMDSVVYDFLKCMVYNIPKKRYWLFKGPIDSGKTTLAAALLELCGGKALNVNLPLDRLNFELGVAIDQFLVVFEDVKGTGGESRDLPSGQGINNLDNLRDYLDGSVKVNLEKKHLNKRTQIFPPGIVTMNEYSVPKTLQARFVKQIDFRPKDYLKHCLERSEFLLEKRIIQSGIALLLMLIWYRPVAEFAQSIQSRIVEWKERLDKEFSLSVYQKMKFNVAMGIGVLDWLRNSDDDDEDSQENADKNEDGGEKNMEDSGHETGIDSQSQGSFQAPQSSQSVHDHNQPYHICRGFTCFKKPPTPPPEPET
Chain of 26S proteasome non-ATPase regulatory subunit 14 (O00487 whole entry): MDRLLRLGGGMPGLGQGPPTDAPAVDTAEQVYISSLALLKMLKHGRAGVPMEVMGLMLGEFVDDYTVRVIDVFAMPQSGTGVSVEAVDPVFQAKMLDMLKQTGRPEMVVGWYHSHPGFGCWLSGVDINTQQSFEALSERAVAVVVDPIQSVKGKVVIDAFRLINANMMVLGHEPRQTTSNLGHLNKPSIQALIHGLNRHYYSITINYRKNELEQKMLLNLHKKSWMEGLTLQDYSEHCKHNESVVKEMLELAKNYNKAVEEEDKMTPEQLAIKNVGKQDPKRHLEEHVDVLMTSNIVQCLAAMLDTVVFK

Compound: Clc1ccc2[nH]c3c(NCCCN4CCOCC4)ncnc3c2c1
- IC50 [1]: 9.1 µM (active)
- AC50 [2]: 33.7 µM (active)
- IC50 [3]: 11.3 µM (inactive)
- IC50 [4]: 59.8 µM (inactive)
- IC50 (Insulin-degrading enzyme): 10.9 µM (not active)
- IC50 [5]: 14.3 µM (not active)

Compound: COc1ccc2c(C)cc(SCC(=O)N3CCOCC3)nc2c1
- IC50 [6]: 9.61 µM (active)
- IC50 [7]: > 100 µM (inactive)
- IC50 [8]: 7.01 µM (active)
- IC50 [9]: 13.3 µM (active)
- IC50 (Prothrombin): 21.6 µM (active)

Compound: CC1=C(C)C[S+]([O-])N(S(=O)(=O)c2ccc(Cl)cc2)C1 (configuration not stated)
- IC50 [10]: 71.9 µM (active)
- IC50 (Beta Lactamase): 25.8 µM (inactive)
- IC50 [11]: > 80 µM (inactive)
- IC50 [12]: 5.57 µM (active)
- IC50 [13]: 30.9 µM (active)
- IC50 [14]: > 50 µM (inactive)
- IC50 (Large T antigen): 18.1 µM (active)
- IC50 [15]: > 93.1 µM (not active)

Compound: CN(C)S(=O)(=O)c1cc(NC(=O)CN2CCN(c3ccccc3)CC2)ccc1Cl
- EC50 (Mu-type opioid receptor): 92.4 µM (inactive)
- EC50 [16]: 30.5 µM (inactive)

Compound: O=C1/C(=C\c2cc(Cl)c(O)c(Cl)c2)SC(=S)N1Cc1ccccc1
- IC50 (Beta-lactamase [17]): 3.15 µM (active)
- EC50 [18]: 5.31 µM (active)
- IC50 (Beta-lactamase [19]): > 59.6 µM (inactive)

Compound: Cc1ccc(-c2cc(-c3ccc(Cl)cc3)c(C#N)c(N)n2)o1
- IC50 [20]: > 64 µM (inactive)
- IC50 [21]: 461 nM (active)
- IC50 [22]: 808 nM (active)
